Data on 105 compounds can be found in the CATMoS acute toxicity set (Mansouri et al. 2021).

The data set can be described thus: GHS categories as the set defines them, by LD50: 1 up to 5, 2 up to 50, 3 up to 300, 4 up to 2000, 5 above 2000 mg/kg. The settings on record: rat; in vivo; po.
Turning to `CC(C)(C)OOC(C)(C)c1cccc(C(C)(C)OOC(C)(C)C)c1`, the GHS category is recorded as 5. The result for `CCCCCCCCCCCCCOC(=O)CCCCC(=O)OCCCCCCCCCCCCC` reads 5; that for `COc1cc2nc(N3CCN(C(=O)CC(C)O)CC3)nc(N)c2cc1OC` (stereo not given), 5; that for `O=C(O)c1cc(O)c2c3nc4ccccc4oc-3cc(=O)c2n1`, 5. Next, `CCN(CC)CCC1=NC(=C2C=CC(=O)C=C2)NO1`: 5. Compound `Cc1ncc(CSSCc2cnc(C)c(O)c2CO)c(CO)c1O` gave a GHS category of 5. Consider `CC(c1ccccc1)c1ccc(Nc2ccc(C(C)c3ccccc3)cc2)cc1` (stereo not given), for which the GHS category is 5. For the compound `CCCCCCOC(=O)C(C)CC` (stereo not given), the GHS category is recorded as 5. Turning to `C=CCN(C(C)=O)C(=O)Oc1cccc2c1OC(C)(C)O2`, the GHS category was determined as 4. As to `CC(C)OC(=O)c1cc(Cl)ccc1OC(N)=O`, the GHS category stood at 5. Next, `CCN1C(=CC=CC=Cc2sc3ccccc3[n+]2CC)Sc2ccccc21`: 3; `CCOC(=O)C(C)CC` (stereo not given): 5; `NC(CCOc1ccc(C(=NO)C(=O)NC2CN(C(C(=O)O)c3ccc(O)cc3)C2=O)cc1)C(=O)O` (stereo not given): 5.

For `CC(C)C(O)C(C)(C)CO` (stereo not given), the GHS category came to 5.

In the case of `CC(=CC1C(C)=CCCC1(C)C)C(C)O` (stereo not given), the GHS category is 5. The compound `CCOC(=O)CCNc1ccccn1` registered a GHS category of 5.

As to `CS(=O)(=O)c1ccc(O)c(Cl)c1`, the GHS category worked out at 4.

As for `CCOCOC1CCCCCCCCCCC1`, the GHS category was found to be 5.

With `CNC(=O)C(=NNc1cc([N+](=O)[O-])ccc1OC)C(C)=O`, the GHS category is 5. Consider `CC(=O)CCC=C(C)CCC=C(C)C`, for which the GHS category was determined as 5. Next, `CC(CO)CCCC1CCCCC1` (stereo not given): 5; `C=C1CC[C@H](O)C/C1=C/C=C1\CCC[C@]2(C)[C@@H]([C@H](C)CC[C@@H](O)C(C)(C)O)CC[C@@H]12`: 2; `CC(CCC(=O)NCCS(=O)(=O)O)C1CCC2C3C(O)CC4CC(O)CCC4(C)C3CCC12C` (stereo not given): 5. For `OCC(O)COc1nn(Cc2ccccc2)c2ccccc12` (stereo not given), the GHS category is reported as 5. Regarding `CO[Si](OC)(C1CCCC1)C1CCCC1`, the GHS category is recorded as 5.

Take `CCOC[C@H]1CO[C@@](Cn2ccnc2)(c2cc3cc(Cl)cc(Cl)c3o2)O1`: the GHS category is 4. Next, `CC[n+]1c(C=Cc2ccc(N3CCCC3)cc2)cccc1C=Cc1ccc(N2CCCC2)cc1`: 5; `Oc1ccc(C(O)CNCCCCCCNCC(O)c2ccc(O)c(O)c2)cc1O` (stereo not given): 5; `CC1=CC[C@H](CC=O)C1(C)C`: 5.

`CC(C)N1CCN(C(=O)c2ccc(OC(=O)C3CCCc4ccccc43)cc2)CC1` (stereo not given) showed a GHS category of 5.

`CCCCOC(=O)CCC(C)=O` yielded a GHS category of 5. As for `O=c1n(CCO)c(=O)n(CCO)c(=O)n1CCO`, the GHS category is on record as 5. The compound `O=[N+]([O-])c1ccc2c(c1)COP(=S)(N1CCOCC1)O2` (stereo not given) displayed a GHS category of 3. Next, `COc1cc(C#N)cc(OC)c1O`: 5; `CC1=NN(c2ccccc2)C(=O)C1=CN1CCCCC1`: 5; `Cc1ccc(C2=NCOCS2)cc1`: 4. Next, `CO[Si](C)(C)CCl`: 4.

Turning to `CC(C)=C1CC[C@H](C)C2=C(C1)[C@@H](C)CC2`, the GHS category worked out at 5. For `CCCCCCOC(=O)CC`, the GHS category is on record as 5.

Compound `C=CCCCCCCCC(=O)N(C)C` gave a GHS category of 4. Next, `CCCCCCCCNC(C)C(O)c1ccc2c(c1)CCCS2` (stereo not given): 5. The result for `CCO[Si](C)(CCCN)OCC` reads 5. The result for `CC(=O)SC[C@@H](C)C(=O)N1CCC[C@H]1C(=O)N[C@@H](Cc1ccccc1)C(=O)O` reads 5. Regarding `Cc1ccc(-n2nccn2)c(C(=O)O)c1`, the GHS category is given as 5. The result for `Cc1c(C)c2c(c(C)c1O)CCC(C)(CCCC(C)CCCC(C)CCCC(C)C)O2` (racemic) reads 5; that for `Cc1ncc(CSSSCc2cnc(C)c(O)c2CO)c(CO)c1O`, 5; that for `Nc1ccc(OS(=O)(=O)O)c(C(=O)O)c1`, 5. The result for `CCCCCCCCCCCCCCCc1cccc(OC(=O)c2cc(Cl)ccc2OC(N)=O)c1` reads 5; that for `CC(C)CCCCCCCOCCC#N`, 5. The result for `N#CCCNCCCCCCNCCC#N` reads 5; that for `CCCCCCCCCCCCC1=C(OC(C)=O)C(=O)c2ccccc2C1=O`, 5; that for `O=S(=O)(O)c1cc(-n2nc3ccc4ccccc4c3n2)ccc1C=Cc1ccccc1`, 5.

Regarding `CCOc1ccc(NC(=O)c2cc3ccccc3cc2O)cc1`, the GHS category is reported as 5. The result for `O=C1NCCCN1` reads 5; that for `C=C(C)C(=O)OCCC(F)(F)C(F)(F)C(F)(F)C(F)(F)C(F)(F)C(F)(F)F`, 5; that for `CCOC(=O)NCC1CCN(c2nc(N)c3cc(OC)c(OC)cc3n2)CC1`, 4.

`CC[n+]1c(-c2ccccc2)c2cc(N)ccc2c2ccc(N)cc21` came in with a GHS category of 5. The result for `Cc1nc2ccccc2c(=O)n1-c1ccccc1C#N` reads 4.

For the compound `CCC(=O)OC1CC(=O)OC(C)CC=CC=CC(OC(C)=O)C(C)CC(CC=O)C(OC2OC(C)C(OC3CC(C)(OC(C)=O)C(OC(=O)CC)C(C)O3)C(N(C)C)C2O)C1OC` (stereo not given), the GHS category was found to be 5. The result for `CCN(C(=O)Oc1cccc(NC(=O)OC(C)C)c1)c1ccccc1` reads 5. Next, `CC(C)(C)CNc1nnc(-c2ccccc2)c2ccccc12`: 5. Next, `CC(=O)C(N=Nc1ccc(C(=O)Nc2ccc(C(N)=O)cc2)cc1)C(=O)Nc1ccc2[nH]c(=O)[nH]c2c1` (stereo not given): 5; `Cc1cc2nc3c(=O)[nH]c(=O)nc-3n(C[C@H](O)[C@H](O)[C@H](O)CO)c2cc1C`: 5; `Cc1cc(-n2nc3ccc(Cl)cc3n2)c(O)c(C(C)(C)C)c1`: 5.

In the case of `CCCCCCCCCCCCN1CCCCCC1=O`, the GHS category stood at 5. With `CCc1ccc(-n2nnnc2CSCCC(=O)N(CC)CC)cc1`, the GHS category worked out at 4. The result for `CN(C(=O)COc1nc2ccccc2s1)c1ccccc1` reads 5. Next, `Cc1cccc(C)c1NC(=O)C1CCCCN1C` (stereo not given): 5; `O=C(O[C@H]1[C@H](OC(=O)c2cccnc2)[C@@H](OC(=O)c2cccnc2)[C@H](OC(=O)c2cccnc2)[C@@H](OC(=O)c2cccnc2)[C@H]1OC(=O)c1cccnc1)c1cccnc1`: 5.

Take `COc1cc(OC)nc(NC(=O)NS(=O)(=O)c2ncccc2C(=O)N(C)C)n1`: the GHS category is 5. For `CC(=O)C1(c2ccccc2)CCN(CCCOc2ccc3c(c2)NC(=O)CC3)CC1`, the GHS category is listed as 4. Next, `CC(CCc1ccccc1)NC(C)C(O)c1ccc(O)cc1` (stereo not given): 5; `CCC[Si](OCC)(OCC)OCC`: 5; `CCCCOC(=O)C1(O)c2ccccc2-c2ccccc21`: 5. For the compound `CC1CC(OC(=O)C(C)(C)Oc2cccc(C(F)(F)F)c2)CC(C)(C)C1` (stereo not given), the GHS category was 5. The result for `CCOC(=O)C(C)O` (stereo not given) reads 5; that for `O=c1c2ccccc2[nH]c2cc3c(=O)c4ccccc4[nH]c3cc12`, 5. `CCCC(=O)CC(=O)OCC` returned a GHS category of 4. Next, `C=C[Si](C)(C)O[Si](C)(C)C=C`: 5; `COc1ccc2c(c1)CCN(c1ccccc1)C2c1ccc(OCc2ccccc2)cc1` (stereo not given): 4. Next, `CCCCCCCC/C=C\CCCCCCCC(=O)OC[C@@H](OC(=O)CCCCCCC/C=C\CCCCCCCC)[C@H]1OC[C@H](O)[C@H]1O`: 5.

For `Cn1c(=O)n(-c2ccccc2)c2cc(Cl)ccc21`, the GHS category worked out at 4. With `CON=C(C(=O)N[C@@H]1C(=O)N2C(C(=O)OC(C)OC(C)=O)=C(COC(N)=O)CS[C@H]12)c1ccco1` (stereo not given in full), the GHS category is on record as 5. Turning to `O=C(O)CNC(c1ccccc1)c1ccc(F)cc1` (stereo not given), the GHS category stood at 4. `CC1C(C)(C)C2=C(C3OCOCC3CC2)C1(C)C` (stereo not given) returned a GHS category of 5. As for `c1ccc2sc(SSc3nc4ccccc4s3)nc2c1`, the GHS category is recorded as 5.

On to `COc1ccc(N=NC(C(C)=O)C(=O)Nc2ccccc2OC)c([N+](=O)[O-])c1` (stereo not given), for which the GHS category amounted to 5. The result for `COc1cc(NC(=O)c2cc3ccccc3cc2O)c(OC)cc1Cl` reads 5. Compound `CCOCCOC(=O)C(=O)Nc1nc(-c2ccccc2)cs1` came in with a GHS category of 5. Next, `O=C(O)c1ccc(C(=O)O)o1`: 5; `CC[C@H]1CO[C@@](Cn2cncn2)(c2cc3cc(Cl)ccc3o2)O1`: 4; `CCCCCCOc1ccccc1C(N)=O`: 5. Consider `CCCCCC(=Cc1ccccc1)C(OC)OC`, for which the GHS category came to 5.

Compound `CCCC(CCC)C(=O)Oc1cc(C)ccc1C(C)C` showed a GHS category of 5. The compound `CO[C@]1(C)CC[C@@]23C[C@@H]1C(C)(C)[C@@H]2CC[C@H]3C` displayed a GHS category of 5.

Turning to `CNC(=O)c1sc(-c2ccc(OC)cc2)nc1C`, the GHS category is on record as 5. The result for `COC(=O)Nc1nc2cc(Sc3ccccc3)ccc2[nH]1` reads 5. Next, `CCOC(=O)c1ccccc1OC(N)=O`: 5.

As to `CCCCNc1cc(C(=O)O)cc(S(N)(=O)=O)c1Oc1ccccc1`, the GHS category is 5. The result for `COc1n[nH]c(=O)n1C` reads 5; that for `CCCCC(CC)CNc1ccc(NCC(CC)CCCC)c2c1C(=O)c1c(O)ccc(O)c1C2=O` (stereo not given), 5; that for `CCOC(=O)c1cnn(-c2cccc(C)c2)c1S(C)(=O)=O`, 4. `O=S(=O)(NCl)c1ccccc1`: the GHS category is on record as 4. In turn, `CCCCCCCCCCCCCCCC(=O)NCC(=O)O` showed a GHS category of 5. The result for `O=C(O)[C@H](CO)Nc1ccc([N+](=O)[O-])cc1` reads 5.
